Source: the supplement of paper PMC10307832

Experiments:
Assay in all cases: relative viability (nuclei count vs DMSO), 5 days (fraction); higher = more cells survive
ABC-1 = test system: ABC-1
In short: (§1)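 Lung cancer cell lines in 1536-well plates were dosed by pin tool the day after seeding, either with one drug alone or with a fixed anchor-drug dose plus five library-drug doses (not always all listed) in √10 steps. After 5 days, cells were fixed and their nuclei stained in one step (final 0.05% Triton X-100, 1% formaldehyde, 1 ug/ml Hoechst), then counted on 4× images. Relative viability is the nuclei count in treated wells divided by that in vehicle wells. Values are medians of duplicate plates.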

COR-L23 = test system: COR-L23
In short: as §1

EPLC-272H = test system: EPLC-272H
In short: as §1

HARA = test system: HARA
In short: as §1

HCC-15 = test system: HCC-15
In short: as §1

HCC-78 = test system: HCC-78
In short: as §1

LC-2-ad = test system: LC-2-ad
In short: as §1

LU99A = test system: LU99A
In short: as §1

NCI-H1651 = test system: NCI-H1651
In short: as §1

NCI-H1915 = test system: NCI-H1915
In short: as §1

NCI-H1993 = test system: NCI-H1993
In short: as §1

NCI-H2009 = test system: NCI-H2009
In short: as §1

NCI-H2085 = test system: NCI-H2085
In short: as §1

NCI-H2126 = test system: NCI-H2126
In short: as §1

NCI-H2342 = test system: NCI-H2342
In short: as §1

NCI-H2347 = test system: NCI-H2347
In short: as §1

NCI-H358 = test system: NCI-H358
In short: as §1

NCI-H460 = test system: NCI-H460
In short: as §1

NCI-H522 = test system: NCI-H522
In short: as §1

NCI-H650 = test system: NCI-H650
In short: as §1

NCI-H838 = test system: NCI-H838
In short: as §1

PC-14 = test system: PC-14
In short: as §1

SW 1573 = test system: SW 1573
In short: as §1

UMC-11 = test system: UMC-11
In short: as §1

## Clc1ccc(Nc2nnc(Cc3ccncc3)c3ccccc23)cc1 [Vatalanib] + CC(=O)c1c(C)c2cnc(Nc3ccc(N4CCNCC4)cn3)nc2n(C2CCCC2)c1=O [Palbociclib] (partner 0.5 µM)
ABC-1; first compound 0.04 µM
  relative viability: 0.662
ABC-1; first compound 0.1265 µM
  relative viability: 0.7
ABC-1; first compound 0.4 µM
  relative viability: 0.892
ABC-1; first compound 4 µM
  relative viability: 0.59
COR-L23; first compound 0.04 µM
  relative viability: 0.364
COR-L23; first compound 0.1265 µM
  relative viability: 0.286
COR-L23; first compound 0.4 µM
  relative viability: 0.322
COR-L23; first compound 1.265 µM
  relative viability: 0.293
COR-L23; first compound 4 µM
  relative viability: 0.297
EPLC-272H; first compound 0.04 µM
  relative viability: 0.361
EPLC-272H; first compound 0.1265 µM
  relative viability: 0.344
EPLC-272H; first compound 0.4 µM
  relative viability: 0.372
EPLC-272H; first compound 1.265 µM
  relative viability: 0.315
EPLC-272H; first compound 4 µM
  relative viability: 0.358
HARA; first compound 0.04 µM
  relative viability: 0.227
HARA; first compound 0.1265 µM
  relative viability: 0.361
HARA; first compound 0.4 µM
  relative viability: 0.224
HARA; first compound 1.265 µM
  relative viability: 0.244
HARA; first compound 4 µM
  relative viability: 0.238
HCC-15; first compound 0.04 µM
  relative viability: 0.711
HCC-15; first compound 0.1265 µM
  relative viability: 0.676
HCC-15; first compound 0.4 µM
  relative viability: 0.759
HCC-15; first compound 1.265 µM
  relative viability: 0.691
HCC-15; first compound 4 µM
  relative viability: 0.668
HCC-78; first compound 0.04 µM
  relative viability: 0.471
HCC-78; first compound 0.1265 µM
  relative viability: 0.459
HCC-78; first compound 0.4 µM
  relative viability: 0.473
HCC-78; first compound 1.265 µM
  relative viability: 0.422
HCC-78; first compound 4 µM
  relative viability: 0.485
LC-2-ad; first compound 0.04 µM
  relative viability: 0.494
LC-2-ad; first compound 0.1265 µM
  relative viability: 0.448
LC-2-ad; first compound 0.4 µM
  relative viability: 0.544
LC-2-ad; first compound 1.265 µM
  relative viability: 0.452
LC-2-ad; first compound 4 µM
  relative viability: 0.471
LU99A; first compound 0.04 µM
  relative viability: 0.418
LU99A; first compound 0.1265 µM
  relative viability: 0.383
LU99A; first compound 0.4 µM
  relative viability: 0.435
LU99A; first compound 1.265 µM
  relative viability: 0.355
LU99A; first compound 4 µM
  relative viability: 0.415
NCI-H1651; first compound 0.04 µM
  relative viability: 0.51
NCI-H1651; first compound 0.1265 µM
  relative viability: 0.496
NCI-H1651; first compound 0.4 µM
  relative viability: 0.479
NCI-H1651; first compound 1.265 µM
  relative viability: 0.532
NCI-H1651; first compound 4 µM
  relative viability: 0.513
NCI-H1915; first compound 0.04 µM
  relative viability: 0.533
NCI-H1915; first compound 0.1265 µM
  relative viability: 0.526
NCI-H1915; first compound 0.4 µM
  relative viability: 0.516
NCI-H1915; first compound 1.265 µM
  relative viability: 0.511
NCI-H1915; first compound 4 µM
  relative viability: 0.511
NCI-H1993; first compound 0.04 µM
  relative viability: 0.872
NCI-H1993; first compound 0.1265 µM
  relative viability: 0.653
NCI-H1993; first compound 0.4 µM
  relative viability: 0.814
NCI-H1993; first compound 1.265 µM
  relative viability: 0.562
NCI-H1993; first compound 4 µM
  relative viability: 0.528
NCI-H2009; first compound 0.04 µM
  relative viability: 0.245
NCI-H2009; first compound 0.1265 µM
  relative viability: 0.203
NCI-H2009; first compound 0.4 µM
  relative viability: 0.249
NCI-H2009; first compound 1.265 µM
  relative viability: 0.24
NCI-H2009; first compound 4 µM
  relative viability: 0.213
NCI-H2085; first compound 0.04 µM
  relative viability: 0.457
NCI-H2085; first compound 0.1265 µM
  relative viability: 0.469
NCI-H2085; first compound 0.4 µM
  relative viability: 0.492
NCI-H2085; first compound 1.265 µM
  relative viability: 0.433
NCI-H2085; first compound 4 µM
  relative viability: 0.475
NCI-H2126; first compound 0.04 µM
  relative viability: 0.314
NCI-H2126; first compound 0.1265 µM
  relative viability: 0.34
NCI-H2126; first compound 0.4 µM
  relative viability: 0.383
NCI-H2126; first compound 1.265 µM
  relative viability: 0.335
NCI-H2126; first compound 4 µM
  relative viability: 0.363
NCI-H2342; first compound 0.04 µM
  relative viability: 0.489
NCI-H2342; first compound 0.1265 µM
  relative viability: 0.507
NCI-H2342; first compound 0.4 µM
  relative viability: 0.46
NCI-H2342; first compound 1.265 µM
  relative viability: 0.579
NCI-H2342; first compound 4 µM
  relative viability: 0.593
NCI-H2347; first compound 0.04 µM
  relative viability: 0.428
NCI-H2347; first compound 0.1265 µM
  relative viability: 0.423
NCI-H2347; first compound 0.4 µM
  relative viability: 0.494
NCI-H2347; first compound 1.265 µM
  relative viability: 0.418
NCI-H2347; first compound 4 µM
  relative viability: 0.446
NCI-H358; first compound 0.04 µM
  relative viability: 0.139
NCI-H358; first compound 0.1265 µM
  relative viability: 0.131
NCI-H358; first compound 0.4 µM
  relative viability: 0.149
NCI-H358; first compound 1.265 µM
  relative viability: 0.123
NCI-H358; first compound 4 µM
  relative viability: 0.136
NCI-H460; first compound 0.04 µM
  relative viability: 0.152
NCI-H460; first compound 0.1265 µM
  relative viability: 0.169
NCI-H460; first compound 0.4 µM
  relative viability: 0.211
NCI-H460; first compound 1.265 µM
  relative viability: 0.148
NCI-H460; first compound 4 µM
  relative viability: 0.0922
NCI-H522; first compound 0.04 µM
  relative viability: 0.872
NCI-H522; first compound 0.1265 µM
  relative viability: 1.06
NCI-H522; first compound 0.4 µM
  relative viability: 1.18
NCI-H522; first compound 1.265 µM
  relative viability: 1.06
NCI-H522; first compound 4 µM
  relative viability: 0.993
NCI-H650; first compound 0.04 µM
  relative viability: 0.308
NCI-H650; first compound 0.1265 µM
  relative viability: 0.316
NCI-H650; first compound 0.4 µM
  relative viability: 0.298
NCI-H650; first compound 1.265 µM
  relative viability: 0.32
NCI-H650; first compound 4 µM
  relative viability: 0.32
NCI-H838; first compound 0.04 µM
  relative viability: 0.227
NCI-H838; first compound 0.1265 µM
  relative viability: 0.235
NCI-H838; first compound 0.4 µM
  relative viability: 0.218
NCI-H838; first compound 1.265 µM
  relative viability: 0.203
NCI-H838; first compound 4 µM
  relative viability: 0.215
PC-14; first compound 0.04 µM
  relative viability: 0.523
PC-14; first compound 0.1265 µM
  relative viability: 0.492
PC-14; first compound 0.4 µM
  relative viability: 0.581
PC-14; first compound 1.265 µM
  relative viability: 0.473
PC-14; first compound 4 µM
  relative viability: 0.532
SW 1573; first compound 0.1265 µM
  relative viability: 0.403
SW 1573; first compound 0.4 µM
  relative viability: 0.461
SW 1573; first compound 1.265 µM
  relative viability: 0.361
SW 1573; first compound 4 µM
  relative viability: 0.368
UMC-11; first compound 0.04 µM
  relative viability: 0.3
UMC-11; first compound 0.1265 µM
  relative viability: 0.316
UMC-11; first compound 0.4 µM
  relative viability: 0.34
UMC-11; first compound 1.265 µM
  relative viability: 0.356
UMC-11; first compound 4 µM
  relative viability: 0.338
